Measured values published in patent US7033829B2, “Method to inhibit cell growth using oligonucleotides” (Trustees of Boston University, priority 2000, dated 2006).

What was measured:
[1] = test system: Human squamous carcinoma cell line SCC12F cells; test: Cell growth / cell yield of SCC12F cells (Coulter counter); type: cell-based; details: 100 μM; days 1, 3, 4, 5 after dosage
Method: Human squamous carcinoma cell line SCC12F cells were maintained in primary keratinocyte medium (300 ml DME, 100 ml F-12 nutrient supplement, 50 ml 10× adenine, 50 ml fetal bovine serum, 5 ml penicillin/streptomycin stock, and 0.5 ml of 10 μg/ml epidermal growth factor and hydrocortisone to final concentration of 1.4 μg/ml) and dosed with either water (diluent), 100 μM pTpT (T2, Midland Certified Reagent Company, Midland, Tex.) or 100 μM pdApdA (A2). Cells were harvested before dosing (day 0), and 1, 3, 4, and 5 days after dosage, and were counted by Coulter™ counter. After harvesting, the cells were processed for total RNA isolation and were analyzed by Northern blot. Addition of a control deoxyadenine dinucleotide (pdApdA), a compound very similar to pTpT but not readily dimerized by UV irradiation, and therefore rarely excised during the course of UV-induced DNA repair, has no effect.
In a second experiment, SCC12F cells were cultured as described above. Two or three days after seeding, the preconfluent cultures were given fresh medium supplemented with either 100 μM T2 or diluent as a control. Cells were collected daily by trypsinization and counted by Coulter™ counter. The cell yield in cultures treated with T2 was reduced by […] compared to that of paired control cultures after five days (FIG. 2). This corresponds to 2.3 population doublings in this time for control cells, compared with 1 doubling for T2-treated cells.
pTpT was previously found to inhibit cell cycle progression, at least in part through activation of p53 and subsequent upregulation of the cyclin dependent kinase inhibitor p21. Cultures of the human keratinocyte line SCC12F were treated with pTpT, SEQ ID NO: 1, SEQ ID NO: 6 or diluent alone as a negative control, collected and counted 48 hours later and processed for northern blot analysis of p21 mRNA expression. […] Thus, the sequences of the present invention activate p53 and inhibit cell proliferation similar to the effect of pTpT.
Exposure of keratinocytes to UVB irradiation affects the expression of genes involved in cell cycle arrest, DNA repair and cytokine production. Single-stranded oligonucleotides sharing sequence homology with the telomere 3′ overhang, when introduced into cells, mimic these UV effects. To identify other genes that may be similarly modulated, cells of keratinocyte origin (SCC12F; a human epidermal squamous cell carcinoma line provided by Dr. James Rheinwald of Harvard University) were exposed to solar simulated irradiation (SSR) (20 mJ/cm^2, measured at 285±5 nm), to an 11-base oligonucleotide (pGTTAGGGTTAG; SEQ ID NO:5) homologous to the telomere overhang (T-oligo), or to a complementary sequence as control [pCTAACCCTAAC; (SEQ ID NO:9) control oligonucleotide]. […] These are mitochondrial-transcribed genes whose encoded proteins participate in cellular respiration.

[2] = test system: GADD 45, ERCC 3 and SDI 1 mRNA; test: Northern blot of GADD 45, ERCC 3 and SDI 1 in SCC12F cells; type: cell-based, human; details: 100 μM; as early as 24 hours, several days
Method: Paired cultures of SCC12F cells were maintained in a Dulbecco's modified Eagle's Medium-based keratinocyte growth medium (DMEM; GIBCO/BRL, Gaithersburg, Md.) supplemented with 10% fetal calf serum (Hyclone Labs, Logan, Utah) and epidermal growth factor as described (Hollander, M. C. et al., J. Biol. Chem. 268:328–336 (1992)). Pre-confluent cultures were given fresh medium supplemented with either 100 μM T2, or an equal volume of diluent. Cells were collected daily after additions, and processed for total RNA isolation using the Tri-Reagent extraction method (Molecular Research Center, Cincinnati, Ohio) following the protocol of the manufacturer. Ten micrograms of RNA from each sample was gel electrophoresed, transferred to a nylon filter and probed as described previously (Nada, A. et al., Exp. Cell Res. 211:90–98 (1994)). The cDNA for GADD 45 was generated by PCR using primers based on the human GADD 45 gene sequence (Mitsudomi, T. et al., Oncogene 7:171–180 (1992)). The cDNA for ERCC 3 was purchased from the American Type Culture Collection (ATCC, Rockville, Md.). The SDI 1 cDNA was a gift of Dr. J. Smith and has been described previously (Walworth, N.C. and Bernards, R., Science 271:353–356 (1996)).

contact hypersensitivity = test: Contact hypersensitivity to DNFB (ear swelling); type: in vivo, C57B16 mice; details: 30 μl of 100 μM BID×5d topical to abdominal skin before sensitization
Method: C57B16 mice were subjected to the following treatment prior to sensitization with the allergen DNFB, by topical administration to abdominal skin; no pretreatment, UVB irradiation (200 J/m^2/dx4d), pTpT, pApA, or vehicle alone (30 μl of 100 μM BID×5d).

TNF-α gene = test: TNFα promoter CAT reporter transgene in skin; type: in vivo, mice; details: intracutaneous pTpT 100 μM; LPS 1 μg/ml
Method: In another experiment, TNF-α gene activation was measured by utilizing mice carrying a CAT reporter transgene bearing the entire TNFα promoter and 3′-untranslated region. Transgenic mice were subjected to the following treatment prior to skin assay for CAT expression: UVB irradiation (200–700 J/m^2), intracutaneous injection of pTpT (100 μM); lipopolysaccharide (LPS 1 μg/ml) as positive control, or vehicle alone.

Substance: deoxyadenine dinucleotide [pdApdA, reference compound]
- cell growth rate [1]: has no effect
- mRNAs for GADD 45, ERCC 3 and SDI 1 [2]: less effective or ineffective
- ear swelling responses to DNFB challenge (contact hypersensitivity): 2.5±0.6

Substance: lipopolysaccharide [LPS, reference compound]
- CAT activity in skin (TNF-α gene): CAT activity was detected
